Data taken from ChEMBL document CHEMBL1139519, “Are L-adenosine and its derivatives substrates for S-adenosyl-L-homocysteine hydrolase?” (J Med Chem, 2005).
Calls of active or inactive are those of the source. The rule behind the calls is not given here.

Columns and labels:
Adenosylhomocysteinase [1] = molecular target: T1, Adenosylhomocysteinase (Homo sapiens, UniProt P23526)
Target sequence in this assay (P23526 2-432 limits assumed): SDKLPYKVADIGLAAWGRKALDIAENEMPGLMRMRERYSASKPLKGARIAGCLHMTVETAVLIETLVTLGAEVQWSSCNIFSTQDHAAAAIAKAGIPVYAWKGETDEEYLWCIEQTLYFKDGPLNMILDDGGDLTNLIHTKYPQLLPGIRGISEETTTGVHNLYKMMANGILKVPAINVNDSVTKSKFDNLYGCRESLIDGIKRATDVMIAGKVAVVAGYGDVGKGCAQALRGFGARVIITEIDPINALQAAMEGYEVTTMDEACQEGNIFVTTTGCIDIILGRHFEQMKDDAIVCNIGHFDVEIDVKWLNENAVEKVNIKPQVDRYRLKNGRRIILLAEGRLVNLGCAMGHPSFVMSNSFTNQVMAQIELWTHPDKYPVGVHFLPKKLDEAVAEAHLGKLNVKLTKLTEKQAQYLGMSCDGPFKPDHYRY
Description: Inhibitory potency against recombinant human placental S-Adenosyl-L-homocysteine Hydrolase at 200 uM

Adenosylhomocysteinase [2] = molecular target: T1, Adenosylhomocysteinase; experiment: Inhibitory potency against recombinant human placental S-Adenosyl-L-homocysteine Hydrolase
Target sequence in this assay (P23526 whole entry): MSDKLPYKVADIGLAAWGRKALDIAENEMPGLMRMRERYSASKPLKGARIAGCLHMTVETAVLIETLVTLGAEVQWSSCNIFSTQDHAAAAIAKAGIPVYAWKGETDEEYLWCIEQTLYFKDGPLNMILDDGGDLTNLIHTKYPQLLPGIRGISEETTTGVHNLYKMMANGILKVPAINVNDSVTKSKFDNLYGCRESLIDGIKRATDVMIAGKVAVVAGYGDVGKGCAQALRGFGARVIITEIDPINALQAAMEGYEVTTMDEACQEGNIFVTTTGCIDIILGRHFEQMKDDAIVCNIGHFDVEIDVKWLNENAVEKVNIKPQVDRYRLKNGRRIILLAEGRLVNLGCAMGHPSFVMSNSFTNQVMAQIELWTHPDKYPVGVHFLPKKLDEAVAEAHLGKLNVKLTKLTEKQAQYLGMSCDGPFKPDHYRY

Adenosylhomocysteinase [3] = molecular target: T1, Adenosylhomocysteinase; remark: listed apart in the source
Target sequence in this assay (P23526 2-432 limits assumed): as the sequence (P23526 2-432 limits assumed) above
Description: Inactivation constant against recombinant human placental S-Adenosyl-L-homocysteine Hydrolase

| SMILES | Inhibitory potency (Adenosylhomocysteinase [1]) | Ki (Adenosylhomocysteinase [2]) | Kinact (Adenosylhomocysteinase [3]) |
| --- | --- | --- | --- |
| Nc1ncnc2c1ncn2C1O[C@H](CO)[C@@H](O)[C@H]1O (single isomer, unassigned) | inactive |  |  |
| Nc1ncnc2c1ncn2[C@H]1OC(/C=N/O)C(O)[C@@H]1O (single isomer, unassigned) | inactive | 670 nM | 0.16 min⁻¹ |
